Data taken from ChEMBL document CHEMBL5113500, “New brefeldin A-cinnamic acid ester derivatives as potential antitumor agents: Design, synthesis and biological evaluation” (Eur J Med Chem, 2022).
Values after ≈ are worked out from the molar mass of the structure shown. Active and inactive are the calls of the source. The calls are words filed in the database; no cut-off is given here.

Experiments:
[1] = tested on: Bel-7402; experiment: Cell cycle arrest in human Bel-7402 cells assessed as accumulation at S phase at 1 uM measured after 24 hrs by propidium iodide staining based flow cytometry (reference value: 31%); type: functional
[2] = tested on: Bel-7402; experiment: Cell cycle arrest in human Bel-7402 cells assessed as accumulation at G1 phase at 1 uM measured after 24 hrs by propidium iodide staining based flow cytometry (reference value: 38.72%); type: functional
[3] = tested on: HepG2; experiment: Cell cycle arrest in human HepG2 cells assessed as accumulation at G2/M phase at 0.4 uM measured after 24 hrs by propidium iodide staining based flow cytometry (reference value: 19.93%); type: functional
[4] = tested on: HepG2; experiment: Cell cycle arrest in human HepG2 cells assessed as accumulation at G1 phase at 0.4 uM measured after 24 hrs by propidium iodide staining based flow cytometry (reference value: 42.27%); type: functional
[5] = tested on: HepG2; experiment: Induction of apoptosis in human HepG2 cells assessed as late apoptotic cells at 0.2 uM measured after 48 hrs by Annexin V-FITC/propidium iodide staining based flow cytometry (reference value: 1.66%); type: functional
[6] = tested on: HepG2; experiment: Induction of apoptosis in human HepG2 cells assessed as viable cells at 0.2 uM measured after 48 hrs by Annexin V-FITC/propidium iodide staining based flow cytometry (reference value: 94.5%); type: functional; conditions: read-out: Activity
[7] = tested on: Bel-7402; experiment: Antiproliferative activity against human Bel-7402 cells measured after 72 hrs by MTT assay; type: functional, cell-based; conditions: Bel-7402, 72 h
[8] = tested on: HeLa; experiment: Antiproliferative activity against human HeLa cells measured after 72 hrs by MTT assay; type: functional, cell-based
[9] = tested on: ECa-109 cell line; experiment: Antiproliferative activity against human Eca-109 cells measured after 72 hrs by MTT assay; type: functional, cell-based; conditions: ECa-109, 72 h
[10] = Selectivity index, ratio of IC50 for human L02 cells to IC50 for human HepG2 cells; type: toxicity; conditions: L02 cells and HepG2 cells, read-out: Ratio IC50
[11] = Solubility of the compound in 5% DMSO and 10% Solutol HS-15 saline solution; type: physicochemical
[12] = tested on: HepG2; experiment: Inhibition of colony formation in human HepG2 cells at 0.4 to 0.8 uM treated every 3 days for 14 days by crystal violet staining based assay; type: functional, cell-based; conditions: dose 0.4-0.8 µM, time 14.0 day
[13] = tested on: Bel-7402; experiment: Inhibition of colony formation in human Bel-7402 cells at 2 uM treated every 3 days for 14 days by crystal violet staining based assay; type: functional, cell-based; conditions: time 14.0 day
[14] = tested on: Bel-7402; experiment: Cell cycle arrest in human Bel-7402 cells assessed as accumulation at G1 phase at 0.5 uM measured after 24 hrs by propidium iodide staining based flow cytometry (reference value: 38.72%); type: functional
[15] = tested on: Bel-7402; experiment: Cell cycle arrest in human Bel-7402 cells assessed as accumulation at G2/M phase at 0.5 uM measured after 24 hrs by propidium iodide staining based flow cytometry (reference value: 30.29%); type: functional
[16] = tested on: Bel-7402; experiment: Cell cycle arrest in human Bel-7402 cells assessed as accumulation at G2/M phase at 1 uM measured after 24 hrs by propidium iodide staining based flow cytometry (reference value: 30.29%); type: functional
[17] = tested on: HepG2; experiment: Cell cycle arrest in human HepG2 cells assessed as accumulation at S phase at 0.8 uM measured after 24 hrs by propidium iodide staining based flow cytometry (reference value: 32.81%); type: functional
[18] = tested on: Bel-7402; experiment: Cell cycle arrest in human Bel-7402 cells assessed as accumulation at G1 phase at 2 uM measured after 24 hrs by propidium iodide staining based flow cytometry (reference value: 38.72%); type: functional
[19] = tested on: Bel-7402; experiment: Cell cycle arrest in human Bel-7402 cells assessed as accumulation at S phase at 2 uM measured after 24 hrs by propidium iodide staining based flow cytometry (reference value: 31%); type: functional
[20] = tested on: HepG2; experiment: Induction of apoptosis in human HepG2 cells assessed as viable cells at 0.4 uM measured after 48 hrs by Annexin V-FITC/propidium iodide staining based flow cytometry (reference value: 94.5%); type: functional; conditions: read-out: Activity
[21] = tested on: HepG2; experiment: Induction of apoptosis in human HepG2 cells assessed as necrotic cells at 0.4 uM measured after 48 hrs by Annexin V-FITC/propidium iodide staining based flow cytometry (reference value: 2.04%); type: functional
[22] = tested on: HepG2; experiment: Induction of apoptosis in human HepG2 cells assessed as viable cells at 0.8 uM measured after 48 hrs by Annexin V-FITC/propidium iodide staining based flow cytometry (reference value: 94.5%); type: functional; conditions: read-out: Activity
[23] = tested on: HepG2; experiment: Induction of apoptosis in human HepG2 cells assessed as early apoptotic cells at 0.8 uM measured after 48 hrs by Annexin V-FITC/propidium iodide staining based flow cytometry (reference value: 1.81%); type: functional
[24] = tested on: HepG2; experiment: Induction of apoptosis in human HepG2 cells assessed as late apoptotic cells at 0.8 uM measured after 48 hrs by Annexin V-FITC/propidium iodide staining based flow cytometry (reference value: 1.66%); type: functional
[25] = tested on: HepG2; experiment: Induction of apoptosis in human HepG2 cells assessed as increase in cleaved PARP expression at 0.2 to 0.8 uM measured after 48 hrs by Western blot analysis; type: functional, cell-based; conditions: dose 0.2-0.8 µM
[26] = target: ADP-ribosylation factor 1 (Homo sapiens) (UniProt P84077); experiment: Binding affinity to Arf1 in human HepG2 cell lysate assessed as change in denaturation temperature at 25 uM measured after 3 mins by CETSA; type: subcellular
[27] = Acute toxicity in ICR mouse assessed as change in ALT level at 100 mg/kg, ip measured after 6 days; type: organism-based; conditions: in vivo, 144 h, time 6 day
[28] = Acute toxicity in ICR mouse assessed as change in urea level at 100 mg/kg, ip measured after 6 days; type: organism-based; conditions: in vivo, 144 h, time 6 day
[29] = Acute toxicity in ICR mouse assessed as pathological change in kidney at 100 mg/kg, ip measured after 6 days; type: organism-based; conditions: in vivo, 144 h, time 6 day
[30] = Acute toxicity in ICR mouse assessed as pathological change in heart at 100 mg/kg, ip measured after 6 days; type: organism-based; conditions: in vivo, 144 h, time 6 day
[31] = Acute toxicity in ICR mouse assessed as pathological change in liver at 100 mg/kg, ip measured after 6 days; type: organism-based; conditions: in vivo, 144 h, time 6 day
[32] = Acute toxicity in ICR mouse assessed as pathological change in lung at 100 mg/kg, ip measured after 6 days; type: organism-based; conditions: in vivo, 144 h, time 6 day
[33] = AUC (0 to t) in ICR mouse at 10 mg/kg, iv; type: ADME, organism-based; design: dose 10 mg/kg, route iv; conditions: in vivo
[34] = MRT (0 to t) in ICR mouse at 10 mg/kg, iv; type: ADME, organism-based; conditions: in vivo
[35] = tested on: HepG2; experiment: Antitumor activity against human HepG2 cells xenografted in BALB/c nude mouse assessed as tumor growth inhibition at 5 mg/kg, ip administered once daily for 16 days relative to control; type: functional; conditions: HepG2, 384 h, time 16 day, read-out: TGI
[36] = Toxicity in human HepG2 cells xenografted BALB/c nude mouse assessed as adverse effect at 5 to 10 mg/kg, ip administered once daily for 16 days; type: organism-based; conditions: in vivo, 384 h, dose 5-10 mg/kg, time 16 day
[37] = tested on: HepG2; experiment: Antitumor activity against human HepG2 cells xenografted in BALB/c nude mouse assessed as reduction in Ki-67 expression at 5 to 10 mg/kg, ip administered once daily for 16 days measured post-last dose by immunohistochemical analysis; type: functional, organism-based; conditions: dose 5-10 mg/kg, time 16.0 day

Chain of ADP-ribosylation factor 1 (Homo sapiens) (P84077 whole entry): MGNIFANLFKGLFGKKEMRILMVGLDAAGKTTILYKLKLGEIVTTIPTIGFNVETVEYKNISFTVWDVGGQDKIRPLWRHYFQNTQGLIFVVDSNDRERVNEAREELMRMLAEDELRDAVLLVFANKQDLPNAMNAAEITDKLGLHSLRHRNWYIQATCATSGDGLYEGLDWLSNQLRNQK

Compound `C[C@H]1CCC/C=C/[C@@H]2C[C@H](O)C[C@H]2[C@H](OC(=O)/C=C/c2ccc(N(C)C)cc2)/C=C/C(=O)O1` has an Activity [1] of 19.59%, an Activity [2] of 54.21% and an Activity [3] of 20.88%. The Activity [4] was 57.76%, the Activity [5] was 3.05% and the viability at 0.2 µM [6] was 66.1%. For the same compound, the IC50 [7] was 840 nM, the IC50 [8] was 860 nM and the IC50 [9] was 1770 nM. For the same compound, the selectivity ratio [10] was 9.69, the solubility [11] was 2500 µg/mL (≈ 5.51 mM) and the inhibition [12] was “Active”. For the same compound, the inhibition [13] was “Active”, the Activity [14] was 51.26% and the Activity [15] was 27.62%. It also gave an Activity [16] of 26.22%, an Activity [17] of 23.25% and an Activity [18] of 60.5%. The Activity [19] was 20.69%, the viability at 0.4 µM [20] was 53.1% and the Activity [21] was 41.57%. The viability at 0.8 µM [22] was 54.4%, the Activity [23] was 1.49% and the Activity [24] was 4.24%. The Activity [25] was “Active”, the Activity [26] was “Active” and the Activity [27] was “Non-Toxic”. For the same compound, the Activity [28] was “Non-Toxic”, the Activity [29] was “Non-Toxic” and the Activity [30] was “Non-Toxic”. For the same compound, the Activity [31] was “Non-Toxic”, the Activity [32] was “Non-Toxic” and the AUC(0-t) [33] was 4010 ng·h/mL. For the same compound, the MRT last [34] was 19.2 min, the inhibition in vivo at 5 mg/kg [35] was 34.3% and the Activity [36] was “Non-Toxic”. The Activity [37] was “Active”.
